In brackets after ≈: the same amount, converted by molar mass. Read-outs that look alike come from different tables or passages of the source. Blank lines part the entries; values can stand above or below the molecule they belong to.
Legend:
[1] = test system: Enterococcus faecalis S613 HM-334; experiment: MIC, broth microdilution (CLSI); type: cell-based; settings: Enterococcus faecalis
Method: (§1) The minimum inhibitory concentrations (MICs) of the compounds and control drugs were determined using the broth microdilution method, according to guidelines outlined by the Clinical and Laboratory Standards Institute (CLSI). Enterococci strains were grown aerobically overnight on tryptone soya agar plates at 37° C., afterwards a bacterial solution equivalent to 0.5 McFarland standard was prepared and diluted in tryptone soy broth (TSB) to achieve a bacterial concentration of about 5×10^5 CFU/mL and seeded in 96-well well plates. Compounds and control drugs were added in the first row of the 96-well plates and serially diluted along the plates. Plates were then incubated aerobically at 37° C. for 18-20 hours. MICs reported in Table 1 are the minimum concentration of the compounds/control drugs that could inhibit completely the visual growth of the bacteria.
(§2) The minimum inhibitory concentrations (MICs) of CAIs were tested against clinical isolates of vancomycin sensitive and vancomycin resistant Enterococci strains as per the guidelines provided by the Clinical and Laboratory Standards Institute (CLSI). The selected strains of Enterococci were streaked on Tryptic Soy Agar (TSA) plates and let grow for 24 hours at 37° C. Afterwards, a bacterial solution equivalent to 0.5 McFarland standard was prepared and diluted in tryptone soy broth (TSB) or brain heart infusion broth (BHIB) to achieve a bacterial concentration of about 5×10^5 CFU/mL and seeded in 96-well well plates. Compounds and control drugs were added in the first row of the 96-well plates and serially diluted along the plates. Plates were then incubated aerobically at 37° C. for 18-20 hours. MICs reported in Table 5 are the minimum concentration of the compounds/control drugs that could inhibit completely the visual growth of the bacteria.
The minimum inhibitory concentrations (MICs) of CAIs were tested against vancomycin resistant Enterococcus faecalis—S613 HM 334 strain as per the guidelines provided by the Clinical and Laboratory Standards Institute (CLSI). The selected strain was streaked on Tryptic Soy Agar (TSA) plate and let grow for 24 hours at 37° C. […] Compounds and control drugs were added in the first row of the 96-well plates and serially diluted along the plates. Plates were then incubated aerobically at 37° C. for 18-20 hours. MICs reported in table (6) are the minimum concentration of the compounds/control drugs that could inhibit completely the visual growth of the bacteria.

gut microbiota = test system: gut microbiota; parameters: species or system C57BL/6 mice; settings: mouse, in vivo, po, 10 mg/kg
Method: CAIs had no major impact on microbiota composition. An extremely promising and innovative feature of CAIs is their narrow spectrum of activity and their ability to decolonize VRE without harming the microbiome. […] To characterize the impact of CAIs administration on the composition of the gut microbiota we performed the following assay6. Female 12-week-old C57BL/6 mice (n=5 mice per group) were exposed to CAIs by oral gavage for 10 days (10 mg/kg daily). Twenty-four hours after last dose, mice were euthanized and cecal and colon contents were harvested. The microbiome was characterized using 16S rDNA gene sequencing. The microbiotas from treated mice were compared to those from a group of control mice. […] However, at the phylum level, we observed decrease in Firmicutes in CAIs treatment groups and likely due to decrease of enterococci as enterococcus is a large genus of the phylum Firmicutes. The Verrucomicrobia and Bacteroidetes remain constant while other phyla increase to fill the remaining percentage from Firmicute loss. […] Indeed, the use of traditional antibiotics can increase the selective pressure and contribute to the selection of other multi-drug-resistant organisms (Kofteridis D. et al., Int J Infect Dis 2009, 13, e313-315).

[2] = test system: Enterococcus fecalis Strain MMH594 - NR31975; experiment: microbe, parasite or virus in culture; type: cell-based; settings: Table 7; TSB
Method: as §1

[3] = test system: Enterococcus fecalis Strain SF 24397 NR31970; experiment: MIC, broth microdilution (CLSI); type: cell-based
Method: as §1, §2

[4] = test system: Enterococcus faecium Patient #3-1 NR-31912; experiment: MIC, broth microdilution (CLSI); type: cell-based; settings: Table 7; TSB
Method: as §1

[5] = test system: Enterococcus fecalis Strain SF 28073 - NR31972; experiment: MIC, broth microdilution (CLSI); type: cell-based; settings: Table 7; TSB
Method: as §1

[6] = test system: Enterococcus fecalis Strain SF24413 NR31971; experiment: MIC, broth microdilution (CLSI); type: cell-based; settings: Table 7; TSB
Method: as §1

[7] = test system: Bacteroides dorei CL02T12C06 HM-719; experiment: MIC against human normal gut microbiota; type: cell-based; settings: Phocaeicola dorei, 48 h
Method: (§3) Three different bacterial strains were used in this experiment; Bifidobacterium (anaerobic Gram positive bacteria), Bacteroides (anaerobic Gram negative bacteria) and Lactobacillus (microaerophilic Gram positive bacteria). Bifidobacterium and Bacteroides were first grown for 48 hours at 37° C., anaerobically using brain heart infusion supplemented (BHIS) agar (Brain heart infusion agar supplemented with hemin, vitamin K and L-cysteine). Lactobacillus was cultivated on MRS agar and incubated in presence of 5% CO2 for 48 hours at 37° C. Each bacterium was suspended in phosphate buffered saline (PBS) to produce a suspension with optical density that matches 0.5 McFarland standard and diluted in brain heart infusion supplemented broth (for Bifidobacterium and Bacteroides) or in MRS broth (for Lactobacillus) to achieve bacterial concentration of approximately 5×10^5 CFU/ml. Bacteria were then seeded in 96-well plates containing serial dilutions of the compounds and incubated as mentioned previously for 48 hours.

[8] = test system: Bacteroides fragilis CL07T00C01 HM-709; experiment: MIC against human normal gut microbiota; type: cell-based; settings: 48 h
Method: as §3

[9] = test system: Bifidobacterium breve JCP7499 HM 1120; experiment: MIC against human normal gut microbiota; type: cell-based; settings: JCP7499HM1120, 48 h
Method: as §3

[10] = test system: vancomycin-resistant E. faecium; experiment: Mouse model of GI colonization by VRE; type: in vivo, C57BL/6 mice; settings: 10 mg/kg oral gavage for 8 days; feces as early as 3rd day
Text: Feasibility in vivo study: AZM reduces VRE load in the intestines and faeces. The promising feature, and the specific and potent antimicrobial activity of CAIs, prompted us to evaluate the in vivo efficacy of AZM in our established mouse model of GI colonization by enterococci with features that mimic the antibiotic-induced enterococcal expansion observed in humans (Mohammad, H. et al., Int J Antimicrob Agents 2018, 51, 897-904; Abdelkhalek, A, et al., PLoS One 2018, 13, e0199710). We tested AZM (two clinical doses 10 and 20 mg/kg) in female 12-week-old C57BL/6 mice (n=5 mice per group) that were sensitized with ampicillin ([…] in drinking water) for 7 days to reduce the microbiota present in the gastrointestinal tract and colonized with 10^8 CFU/mL of vancomycin-resistant E. faecium.
We thought that the rapid absorption of AZM from the gastrointestinal tract would limit their exposure time to VRE present in the gastrointestinal tract.
Mice were treated for 8 days with 10 mg/kg of drugs by oral gavage.

[11] = type: in vivo; settings: 200 mg/kg twice daily (400 mg/kg daily) for three days

MIC ([1]; S613HM334, Table 5, BHIB, read-out: MIC): > 128 µg/mL | MIC ([1]; S613HM334, Table 5, TSB, read-out: MIC): 8 µg/mL (≈ 24.7 µM) | MIC ([1]; S613HM334, Table 6, TSB in presence of 4% human serum albumin, read-out: MIC): > 256 µg/mL | taxonomic structure and composition of microbiota (gut microbiota): no major shift or change
SMILES: CCN[C@H]1C[C@H](C)S(=O)(=O)c2sc(S(N)(=O)=O)cc21 [Dorzolamide]

SMILES: CN[C@H](CC(C)C)C(=O)N[C@H]1C(=O)N[C@@H](CC(N)=O)C(=O)N[C@H]2C(=O)N[C@H]3C(=O)N[C@H](C(=O)N[C@H](C(=O)O)c4cc(O)cc(O)c4-c4cc3ccc4O)[C@H](O)c3ccc(c(Cl)c3)Oc3cc2cc(c3O[C@@H]2O[C@H](CO)[C@@H](O)[C@H](O)[C@H]2O[C@H]2C[C@](C)(N)[C@H](O)[C@H](C)O2)Oc2ccc(cc2Cl)[C@H]1O [Vancomycin, reference compound]
MIC [2]: 2 µg/mL (≈ 1.38 µM) | MIC ([3]; Table 5, BHIB): 2 µg/mL (≈ 1.38 µM) | MIC ([3]; Table 5, TSB): 2 µg/mL (≈ 1.38 µM) | MIC ([3]; Table 7, TSB): 2 µg/mL (≈ 1.38 µM) | MIC [4]: >64 µg/mL | MIC [5]: >64 µg/mL | MIC [6]: 32 µg/mL (≈ 22.1 µM) | MIC ([1]; S613HM334, Table 1, TSB): > 64 µg/mL | MIC ([1]; S613HM334, Table 5, BHIB): > 128 µg/mL | MIC ([1]; S613HM334, Table 5, TSB): > 128 µg/mL | MIC ([1]; S613HM334, Table 7, TSB): > 64 µg/mL | MIC [7]: 64 µg/mL (≈ 44.2 µM) | MIC [8]: 64 µg/mL (≈ 44.2 µM) | MIC [9]: 8 µg/mL (≈ 5.52 µM)

SMILES: NS(=O)(=O)c1nnc(NCc2ccccc2C(F)(F)F)s1 [analog 8]
reduction of VRE in the feces, cecum and ileum compared with AZM and linezolid [10]: superior to AZM and linezolid | survival [11]: all the mice survived

Reference: patent US20250328351A1, “CARBONIC ANHYDRASE INHIBITORS AND ANTIBIOTICS AGAINST MULTIDRUG RESISTANT BACTERIA” (Purdue Research Foundation, priority 2018, published 2025)
